Experimental data from patent publication US11613558B2, “Peptides and pharmaceutical compositions for treating eye diseases” (Yuyu Pharma, Inc., priority 2018, dated 2023).
Square brackets hold non-standard residues; d marks the D form. Peptide text beside a SMILES is read from it. ξ: configuration not given here. Pro(trans-4-F) = O=C(O)[C@@H]1C[C@@H](F)CN1; Hyp = O=C(O)[C@@H]1C[C@@H](O)CN1; Ile(3ξ) = CCC(C)[C@H](N)C(=O)O; hSer = N[C@@H](CCO)C(=O)O

What was measured:
[1] = Stability in aqueous solution under long-term storage conditions (related substances); assay type: physicochemical; details: 25° C., 75% RH
Protocol: In order to confirm the stability of each test substance in an aqueous solution, […] of each sample was dissolved in 1 ml of water to a concentration of 1 mg/ml, which was then charged to a glass vial, plugged with a rubber cap, sealed with an aluminum cap, and stored under long-term storage conditions (25° C., 75% RH). The stability of the test substance was evaluated by measuring the amount of related substances at the time of one week, two weeks, four weeks, eight weeks, and twelve weeks under the long-term storage conditions.

[2] = system: cornea of rats with dry eye syndrome (ELGE); test: Corneal permeability of fluorescent dye (corneal damage) in ELGE rats with dry eye syndrome; assay type: in vivo, rat; details: 5 μl/eye twice daily, day 14
Description: (§1) In order to evaluate the eye protection effect on dry eye syndrome by YDE-001 to YDE-028 prepared in Example 1, a total of 320 Sprague-Dawley-type male rats (OrientBio, Seungnam, Korea) were adapted for 7 days. Thereafter, dry eye syndrome was induced in 264 test rats through extraorbital lacrimal gland excision (hereinafter, ELGE). 8 test rats without the eye abnormality were subjected to a sham operation as a control group.
(§2) The rat was systemically anesthetized by inhaling a mixed gas of 2% to 3% of isoflurane (Hana Pharm. Co., Hwasung, Korea), 70% of N2O, and 28.6% of O2 using a rodent anesthesia machine (Surgivet, Waukesha, Wis., USA) and a ventilator (Model 687, Harvard Apparatus, Cambridge, UK). Thereafter, the extraorbital lacrimal gland located in the subdermal area above the masseter muscle and […] was excised through a transverse incision in a size of 10 mm on the anterior part of the left ear tragus. The skin was sutured by a general method. […] After 6 days from the ELGE operation, it was checked through the Schirmer test by measuring the amount of tear secretion whether dry eye syndrome had been induced. Meanwhile, each rat of the control group with the sham operation was checked for the presence and location of the extraorbital lacrimal gland through a skin incision, and the skin was then sutured without the excision thereof (FIG. 4).
(§3) In addition, in order to evaluate the eye protection effect on dry eye syndrome by YDE-029 to YDE-043 prepared in Example 1, a total of 200 Sprague-Dawley-type male rats (OrientBio, Seungnam, Korea) were adapted for 7 days. Dry eye syndrome was induced in 165 test rats through the ELGE. 8 test rats without the eye abnormality were subjected to the sham operation as a control group. The ELGE was carried out as described above.
(§4) For YDE-001 to YDE-028, YY-102 and the 28 YDE-series were each dissolved in physiological saline at a concentration of 3 mg/ml and administered at a dose of 5 μl/eye at 9:30 am and 3:30 pm daily for 14 days after 7 days from the ELGE operation for a total of 28 times. The DS solution was dissolved in physiological saline at a concentration of 30 mg/ml and administered at a dose of […] twice a day for 14 days after 7 days from the ELGE operation for a total of 28 times. For the sham control and the ELGE control groups, the same stimulation as the administration was applied. In order to prevent excessive eye dryness, the same volume of physiological saline was applied in the same manner in place of the test substances.
as §4, with “Further, for YDE-029 to YDE-043,” for “For YDE-001 to YDE-028,”, “YDE-029 to YDE-043, YY-102 and” for “YDE-001 to YDE-028, YY-102 and”, “and the 15 YDE-series were” for “and the 28 YDE-series were”, “the test substances (FIG. 7).” for “the test substances.”
After YDE-001 to YDE-028 were each administered to the eyes […], the changes in the corneal permeability were checked.
In order to measure the corneal permeability, Zolethyl 50™ (Virbac Lab., Carros, France), an animal anesthetic, was intraperitoneally injected at a dose of 25 mg/kg. Thereafter, saline containing a 1% (v/v) fluorescent solution (fluorescein sodium salt, Tokyo Kasei Kogyo Co., Tokyo, Japan) was applied to the eyes at a dose of 5 μl/eye. The eyes thus treated were closed and fixed with a tape. After 1 hour, the remaining fluorescent solution was removed using a cotton swab (FIG. 12). […]

[3] = system: rats with dry eye syndrome (extraorbital lacrimal gland excision, ELGE); test: Amount of tear secretion (Schirmer test, cobalt chloride paper) in ELGE rats with dry eye syndrome; assay type: in vivo, rat; details: for Tear Volumes, Day 7 / Tear Volumes, Day 14: ELGE rats, 3 mg/ml, 5 μl/eye twice daily; for Tear Volumes, Day 7: day 7 of administration; for Tear Volumes, Day 14: day 14 of administration; for Change in amount of tear secretion as compared with the ELGE control group: study of YDE-001 to YDE-028, 3% solution as printed, after administration for 14 days
Description: as §1, §2, §3, §4
as §4, with “Further, for YDE-029 to YDE-043,” for “For YDE-001 to YDE-028,”, “YDE-029 to YDE-043, YY-102 and” for “YDE-001 to YDE-028, YY-102 and”, “and the 15 YDE-series were” for “and the 28 YDE-series were”, “the test substances (FIG. 7).” for “the test substances.”
After 6 days from the ELGE surgery, the changes in the amount of tear secretion were measured at day 7 and day 14 after the administration of YDE-001 to YDE-043. The amount of tear secretion was measured by the […] travel distance of tears absorbed by cobalt chloride paper in a size of 1×15 mm (Toyo Roshi Kaisha, Japan).
The cobalt chloride paper was placed in the lateral canthus of a rat for 60 seconds to absorb tears (FIG. 9). The length of the area absorbed from the corner of the cobalt chloride paper was measured with an electronic digital caliper (Mytutoyo, Tokyo, Japan) (FIG. 8).

[4] = Table 6, study of YDE-001 to YDE-028, 3 mg/ml
[5] = Table 4, study of YDE-001 to YDE-028
[6] = Table 7, study of YDE-029 to YDE-043, 3 mg/ml
[7] = Table 5, study of YDE-029 to YDE-043

Structure (SMILES) | Amount of related substances (after 12 weeks) [1] [%] | Permeability of fluorescent dye [2, 4] [%] | Tear Volumes, Day 7 [3, 5] [mm^3] | Tear Volumes, Day 14 [3, 5] [mm^3] | Change in amount of tear secretion as compared with the ELGE control group [3] | Permeability of fluorescent dye [2, 6] [%] | Tear Volumes, Day 7 [3, 7] [mm^3] | Tear Volumes, Day 14 [3, 7] [mm^3]
CC(C)C[C@H](NC(=O)CNC(=O)[C@H](CCC(=O)O)NC(=O)[C@H](CCC(N)=O)NC(=O)CNC(=O)[C@@H]1C[C@@H](O)CN1)C(=O)N[C@@H](C)C(=O)NCC(=O)N1CCC[C@H]1C(=O)N[C@@H](CCCCN)C(=O)O [YDE-001] (H-[Hyp]GQEGLAGPK-OH) | 3.92 | 25.49 ± 11.62 | 4.88 ± 1.62 | 5.92 ± 2.19 | – | – | – | –
CC(C)C[C@H](NC(=O)CNC(=O)[C@H](CCC(N)=O)NC(=O)[C@H](CCC(N)=O)NC(=O)CNC(=O)[C@@H]1C[C@@H](O)CN1)C(=O)N[C@@H](C)C(=O)NCC(=O)N1CCC[C@H]1C(=O)N[C@@H](CCCCN)C(=O)O [YDE-003] (H-[Hyp]GQQGLAGPK-OH) | 6.86 | 40.45 ± 6.46 | 4.13 ± 1.76 | 4.88 ± 1.57 | – | – | – | –
CC(C)C[C@H](NC(=O)[C@H](Cc1c[nH]c2ccccc12)NC(=O)[C@H](CC(=O)O)NC(=O)[C@H](CCC(N)=O)NC(=O)CNC(=O)[C@@H]1C[C@@H](O)CN1)C(=O)N[C@@H](C)C(=O)NCC(=O)N1CCC[C@H]1C(=O)N[C@@H](CCCCN)C(=O)O [YDE-021] (H-[Hyp]GQDWLAGPK-OH) | 21.33 | 37.00 ± 10.49 | 4.08 ± 1.33 | 4.90 ± 1.13 | did not show any significant changes | – | – | –
CCC(C)[C@H](NC(=O)[C@H](CCC(N)=O)NC(=O)CNC(=O)[C@@H]1C[C@@H](O)CN1)C(=O)NCC(=O)N[C@@H](CC(C)C)C(=O)N[C@@H](C)C(=O)NCC(=O)N1CCC[C@H]1C(=O)N[C@@H](CCCCN)C(=O)O (stereo partly shown) [YDE-010] (H-[Hyp]GQ[Ile(3ξ)]GLAGPK-OH) | 4.39 | 49.29 ± 12.06 | 3.42 ± 1.31 | 4.35 ± 1.36 | did not show any significant changes | – | – | –
CC(C)C[C@H](NC(=O)[C@H](C)NC(=O)[C@H](CC(=O)O)NC(=O)[C@H](CCC(N)=O)NC(=O)CNC(=O)[C@@H]1C[C@@H](O)CN1)C(=O)N[C@@H](C)C(=O)NCC(=O)N1CCC[C@H]1C(=O)N[C@@H](CCCCN)C(=O)O [YDE-018] (H-[Hyp]GQDALAGPK-OH) | 25.39 | 38.19 ± 10.96 | 3.75 ± 1.54 | 4.99 ± 1.60 | – | – | – | –
CC(C)C[C@H](NC(=O)CNC(=O)[C@H](CC(C)C)NC(=O)[C@H](CCC(N)=O)NC(=O)CNC(=O)[C@@H]1C[C@@H](O)CN1)C(=O)O [YDE-042] (H-[Hyp]GQLGL-OH) | 3.98 | – | – | – | – | 20.72 ± 11.37 | 6.30 ± 1.08 | 7.97 ± 1.48
CC(C)C[C@H](NC(=O)CNC(=O)[C@H](CC(C)C)NC(=O)[C@H](CCC(N)=O)NC(=O)CNC(=O)[C@@H]1C[C@@H](F)CN1)C(=O)N[C@@H](C)C(=O)NCC(=O)N1CCC[C@H]1C(=O)N[C@@H](CCCCN)C(=O)O [YDE-039] (H-[Pro(trans-4-F)]GQLGLAGPK-OH) | 2.19 | – | – | – | – | 29.94 ± 11.40 | 6.04 ± 1.01 | 6.44 ± 1.96
CC(C)C[C@H](NC(=O)[C@H](Cc1ccc(O)cc1)NC(=O)[C@H](CC(=O)O)NC(=O)[C@H](CCC(N)=O)NC(=O)CNC(=O)[C@@H]1C[C@@H](O)CN1)C(=O)N[C@@H](C)C(=O)NCC(=O)N1CCC[C@H]1C(=O)N[C@@H](CCCCN)C(=O)O [YDE-020] (H-[Hyp]GQDYLAGPK-OH) | 21.54 | 47.84 ± 13.47 | 3.41 ± 1.47 | 4.20 ± 1.35 | did not show any significant changes | – | – | –
CC(C)C[C@H](NC(=O)[C@H](Cc1ccccc1)NC(=O)[C@H](CC(=O)O)NC(=O)[C@H](CCC(N)=O)NC(=O)CNC(=O)[C@@H]1C[C@@H](O)CN1)C(=O)N[C@@H](C)C(=O)NCC(=O)N1CCC[C@H]1C(=O)N[C@@H](CCCCN)C(=O)O [YDE-019] (H-[Hyp]GQDFLAGPK-OH) | 13.43 | 40.39 ± 12.57 | 4.84 ± 1.39 | 4.52 ± 1.07 | did not show any significant changes | – | – | –
COC(=O)C[C@H](NC(=O)[C@H](CCC(N)=O)NC(=O)CNC(=O)[C@@H]1C[C@@H](O)CN1)C(=O)NCC(=O)N[C@@H](CC(C)C)C(=O)N[C@@H](C)C(=O)NCC(=O)N1CCC[C@H]1C(=O)N[C@@H](CCCCN)C(=O)O [YDE-027] (H-[Hyp]GQD(OMe)GLAGPK-OH) | 12.74 | 50.24 ± 11.94 | 2.82 ± 0.86 | 3.95 ± 1.52 | did not show any significant changes | – | – | –
CC(C)C[C@H](NC(=O)CNC(=O)[C@H](CCO)NC(=O)[C@H](CCC(N)=O)NC(=O)CNC(=O)[C@@H]1C[C@@H](O)CN1)C(=O)N[C@@H](C)C(=O)NCC(=O)N1CCC[C@H]1C(=O)N[C@@H](CCCCN)C(=O)O [YDE-026] (H-[Hyp]GQ[hSer]GLAGPK-OH) | 10.15 | 22.63 ± 11.23 | 4.32 ± 1.47 | 6.01 ± 1.83 | – | – | – | –
